Experimental data as given in patent US9321764B2, “Dihydro-pyrrolopyridinone inhibitors” (AbbVie Inc., priority 2013, dated 2016).

Tests used:
BRD4 (BDII_E352-M457) = target: T1, BRD4 (BDII_E352-M457) (Homo sapiens, UniProt O60885); test: TR-FRET bromodomain binding assay, second bromodomain of BRD4; conditions: His-tagged BD2, 30 nM Alexa647 probe; TR-FRET protocol A-E given per row
T1 construct: proliferation; Protocol; made in house
Method in brief: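 His-tagged BRD4 BD2 ([…]) competed against an Alexa647-labelled BET-inhibitor probe in TR-FRET. Buffer was 20 mM sodium phosphate pH 6.0, 50 mM NaCl, 1 mM EDTA, 0.01% Triton X-100, 1 mM DTT, with method D DMSO series of 2.5 mM–800 nM (stock range). IC50 from 4-parameter fit, Ki from probe Kd and concentration.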

BRD4 (BDI_K57-E168) = target: T2, BRD4 (BDI_K57-E168) (Homo sapiens, UniProt O60885); test: TR-FRET bromodomain binding assay, first bromodomain of BRD4; conditions: His-tagged BD1, 100 nM Alexa647 probe; TR-FRET protocol A-E given per row
T2 construct: BD1: amino acids K57-E168; made in house
Method in brief: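 Ki values come from IC50s (4-parameter logistic) corrected for probe Kd and concentration, normalised to no-compound and 1 μM unlabelled probe controls. Probe displacement by TR-FRET used 8 nM BD1 (K57-E168), 100 nM Alexa647 probe, 1 nM Eu-anti-His, 20 mM phosphate pH 6.0, 2% DMSO, 1 h, room temperature.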

[1] = tested on: breast cancer cell line MX-1; test: MX-1 cell line proliferation assay; type: cell-based; conditions: Homo sapiens, MX1, 72 h, MX-1 cells, 3-day proliferation assay, Cell Titer Glo; read-out: Cellular proliferation EC50
Method in brief: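 Final compound concentrations spanned 0.0001 to 3 μM, added to 5000 cells/well plated the previous night in RPMI 1640 plus 10% FBS at 37 °C.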

[2] = tested on: LPS induced IL-6 production; test: LPS (lipopolysaccharide) induced IL-6 production mouse assay; type: in vivo; conditions: read-out: Inhibition of LPS induced IL-6 production, % inhibition at 3 mg/kg, 3 mg/kg oral, one hour before LPS 2.5 mg/kg i.p., serum IL-6 2 hours after LPS, SCID female mice, all p < 0.05
Description: Compounds of the Examples listed in Table 2 were assayed for their ability to inhibit LPS (lipopolysaccharide) induced IL-6 (Interleukin-6) production in mice. Fox Chase SCID® female mice (Charles Rivers Labs, 5 per group) received an intraperitoneal challenge of lipopolysaccharide (2.5 mg/kg, L2630 E. coli 0111:B4) one hour after oral administration of compounds. Mice were euthanized 2 hours after lipopolysaccharide injection, blood was removed by cardiac puncture, and then the serum harvested from the blood samples was frozen at −80° C. On the day of the assay the serum samples were brought to room temperature and then diluted 1:20 in phosphate-buffered saline containing 2% bovine serum albumin. Interleukin-6 measurements were performed using a cytokine assay from Meso Scale Discovery (Gaithersburg, Md.) for mouse serum analysis according to the manufacturer's protocol and read on a SECTOR Imager 6000 (Meso Scale Discovery, Gaithersburg, Md.) instrument. Statistical analysis was performed using Prism software (version 5.0) incorporating Dunnett's one way ANOVA. The IL-6 mean and standard deviation of the group of vehicle treated animals were compared with the IL-6 mean and standard deviation of the group treated with drug. A p value <0.05 means that there is less than a 5% probability that the mean values in the two groups are equal.

| Structure (SMILES) | Ki (BRD4 (BDII_E352-M457)) | Ki (BRD4 (BDI_K57-E168)) | EC50 [1] | inhibition in vivo at 3 mg/kg [2] |
| --- | --- | --- | --- | --- |
| Cn1cc(-c2cc(NS(C)(=O)=O)c(F)cc2Oc2ccc(F)cc2F)c2cc[nH]c(=O)c21 [Example 11, N-[4-(2,4-difluorophenoxy)-2-fluoro-5-(1-methyl-7-oxo-6,7-dihydro-1H-pyrrolo[2,3-c]pyridin-3-yl)phenyl]methanesulfonamide] | 31 nM | 8.9 nM | 37 nM | 66% |
| Cn1cc(-c2cc(NS(C)(=O)=O)ccc2Oc2ccc(C#N)cc2)c2cc[nH]c(=O)c21 [Example 16, N-[4-(4-cyanophenoxy)-3-(1-methyl-7-oxo-6,7-dihydro-1H-pyrrolo[2,3-c]pyridin-3-yl)phenyl]methanesulfonamide] | 27 nM | 2.1 nM | 59 nM | 69% |
| Cn1cc(-c2cc(S(C)(=O)=O)ccc2OC2CCC(F)(F)CC2)c2cc[nH]c(=O)c21 [Example 25, 3-{2-[(4,4-difluorocyclohexyl)oxy]-5-(methylsulfonyl)phenyl}-1-methyl-1,6-dihydro-7H-pyrrolo[2,3-c]pyridin-7-one] | 60 nM | 14 nM | 80 nM | 62% |
| Cn1cc(-c2cc(S(C)(=O)=O)ccc2OCCC2CC2)c2cc[nH]c(=O)c21 [Example 32, 3-[2-(2-cyclopropylethoxy)-5-(methylsulfonyl)phenyl]-1-methyl-1,6-dihydro-7H-pyrrolo[2,3-c]pyridin-7-one] | 11 nM | 6.1 nM | 127 nM | 33% |
| CCS(=O)(=O)Nc1ccc(Oc2ccc(F)cc2F)c(-c2cn(C)c3c(=O)[nH]c(C4CCN(C(=O)C5CC5)CC4)cc23)c1 [Example 185, N-[3-{5-[1-(cyclopropylcarbonyl)piperidin-4-yl]-1-methyl-7-oxo-6,7-dihydro-1H-pyrrolo[2,3-c]pyridin-3-yl}-4-(2,4-difluorophenoxy)phenyl]ethanesulfonamide] | 7.94 nM | 4.29 nM | 61.4 nM |  |
| CCS(=O)(=O)Nc1ccc(Oc2ccc(F)cc2F)c(-c2cn(C)c3c(=O)[nH]c(C4CCN(S(=O)(=O)CC)CC4)cc23)c1 [Example 186, N-[4-(2,4-difluorophenoxy)-3-{5-[1-(ethylsulfonyl)piperidin-4-yl]-1-methyl-7-oxo-6,7-dihydro-1H-pyrrolo[2,3-c]pyridin-3-yl}phenyl]ethanesulfonamide] | 0.82 nM | 0.38 nM | 13.4 nM |  |
| CCS(=O)(=O)Nc1ccc(Oc2ccc(F)cc2F)c(-c2cn(C)c3c(=O)[nH]c(C(=O)NCCCn4ccnc4)cc23)c1 [Example 187, 3-{2-(2,4-difluorophenoxy)-5-[(ethylsulfonyl)amino]phenyl}-N-[3-(1H-imidazol-1-yl)propyl]-1-methyl-7-oxo-6,7-dihydro-1H-pyrrolo[2,3-c]pyridine-5-carboxamide] | 2.02 nM | 1.21 nM | 64.7 nM |  |
| CCS(=O)(=O)Nc1ccc(Oc2ccc(F)cc2F)c(-c2cn(C)c3c(=O)[nH]c(C(=O)NCCN(C)C)cc23)c1 [Example 188, 3-{2-(2,4-difluorophenoxy)-5-[(ethylsulfonyl)amino]phenyl}-N-[2-(dimethylamino)ethyl]-1-methyl-7-oxo-6,7-dihydro-1H-pyrrolo[2,3-c]pyridine-5-carboxamide] | 13.5 nM | 1.42 nM | 29.9 nM |  |
| CCS(=O)(=O)Nc1ccc(Oc2ccc(F)cc2F)c(-c2cn(C)c3c(=O)[nH]c(C(=O)NCC#N)cc23)c1 [Example 189, N-(cyanomethyl)-3-{2-(2,4-difluorophenoxy)-5-[(ethylsulfonyl)amino]phenyl}-1-methyl-7-oxo-6,7-dihydro-1H-pyrrolo[2,3-c]pyridine-5-carboxamide] | 8.82 nM | 1.95 nM | 77.9 nM |  |
| CCS(=O)(=O)Nc1ccc(Oc2ccc(F)cc2F)c(-c2cn(C)c3c(=O)[nH]c(C(=O)NCCCO)cc23)c1 [Example 190, 3-{2-(2,4-difluorophenoxy)-5-[(ethylsulfonyl)amino]phenyl}-N-(3-hydroxypropyl)-1-methyl-7-oxo-6,7-dihydro-1H-pyrrolo[2,3-c]pyridine-5-carboxamide] | 3.85 nM | 2.01 nM | 82 nM |  |
| CCS(=O)(=O)Nc1ccc(Oc2ccc(F)cc2F)c(-c2cn(C)c3c(=O)[nH]c(C(=O)NCc4cccnc4)cc23)c1 [Example 192, 3-{2-(2,4-difluorophenoxy)-5-[(ethylsulfonyl)amino]phenyl}-1-methyl-7-oxo-N-(pyridin-3-ylmethyl)-6,7-dihydro-1H-pyrrolo[2,3-c]pyridine-5-carboxamide] | 1.3 nM | 0.9 nM | 10.7 nM |  |
| CCS(=O)(=O)Nc1ccc(Oc2ccc(F)cc2F)c(-c2cn(C)c3c(=O)[nH]c(C(=O)N4CCCC4)cc23)c1 [Example 193, N-{4-(2,4-difluorophenoxy)-3-[1-methyl-7-oxo-5-(pyrrolidin-1-ylcarbonyl)-6,7-dihydro-1H-pyrrolo[2,3-c]pyridin-3-yl]phenyl}ethanesulfonamide] | 41.3 nM | 4.3 nM | 111 nM |  |
| CCS(=O)(=O)Nc1ccc(Oc2ccc(F)cc2F)c(-c2cn(C)c3c(=O)[nH]c(C(=O)NCC4CCCC4)cc23)c1 [Example 195, N-(cyclopentylmethyl)-3-{2-(2,4-difluorophenoxy)-5-[(ethylsulfonyl)amino]phenyl}-1-methyl-7-oxo-6,7-dihydro-1H-pyrrolo[2,3-c]pyridine-5-c arboxamide] | 12.7 nM | 10.4 nM | 162 nM |  |
| CCS(=O)(=O)Nc1ccc(Oc2ccc(F)cc2F)c(-c2cn(C)c3c(=O)[nH]c(C(=O)NCCN4CCOCC4)cc23)c1 [Example 196, 3-{2-(2,4-difluorophenoxy)-5-[(ethylsulfonyl)amino]phenyl}-1-methyl-N-[2-(morpholin-4-yl)ethyl]-7-oxo-6,7-dihydro-1H-pyrrolo[2,3-c]pyridine-5-carboxamide] | 9.64 nM | 1.66 nM | 30.9 nM |  |
| CCS(=O)(=O)Nc1ccc(Oc2ccc(F)cc2F)c(-c2cn(C)c3c(=O)[nH]c(C(=O)NCCN4CCN(C)CC4)cc23)c1 [Example 197, 3-{2-(2,4-difluorophenoxy)-5-[(ethylsulfonyl)amino]phenyl}-1-methyl-N-[2-(4-methylpiperazin-1-yl)ethyl]-7-oxo-6,7-dihydro-1H-pyrrolo[2,3-c]pyridine-5-carboxamide] | 4.23 nM | 2.05 nM | 67.6 nM |  |
| CCS(=O)(=O)Nc1ccc(Oc2ccc(F)cc2F)c(-c2cn(C)c3c(=O)[nH]c(C(=O)NCC4CCOC4)cc23)c1 (stereo not shown) [Example 199, 3-{2-(2,4-difluorophenoxy)-5-[(ethylsulfonyl)amino]phenyl}-1-methyl-7-oxo-N-(tetrahydrofuran-3-ylmethyl)-6,7-dihydro-1H-pyrrolo[2,3-c]pyridine-5-carboxamide] | 6.5 nM | 3.63 nM | 36.8 nM |  |
| CCS(=O)(=O)Nc1ccc(Oc2ccc(F)cc2F)c(-c2cn(C)c3c(=O)[nH]c(C(=O)NC)cc23)c1 [Example 200, 3-{2-(2,4-difluorophenoxy)-5-[(ethylsulfonyl)amino]phenyl}-N,1-dimethyl-7-oxo-6,7-dihydro-1H-pyrrolo[2,3-c]pyridine-5-carboxamide] | 4.56 nM | 3.24 nM | 43.6 nM |  |
| Cn1cc(-c2cc(CS(C)(=O)=O)cc(C3CC3)c2Nc2ccc(F)cc2F)c2cc[nH]c(=O)c21 [Example 202, 3-{3-cyclopropyl-2-[(2,4-difluorophenyl)amino]-5-[(methylsulfonyl)methyl]phenyl}-1-methyl-1,6-dihydro-7H-pyrrolo[2,3-c]pyridin-7-one] | 16.3 nM | 5.82 nM | 98.3 nM |  |
| Cn1cc(-c2cc(CS(C)(=O)=O)ccc2Nc2ccccn2)c2cc[nH]c(=O)c21 [Example 203, 1-methyl-3-{5-[(methylsulfonyl)methyl]-2-(pyridin-2-ylamino)phenyl}-1,6-dihydro-7H-pyrrolo[2,3-c]pyridin-7-one] | 43.9 nM | 13.8 nM | 118 nM |  |
